Molecules are shown by their SMILES.

This series in a line: gradient 5% acetonitrile 3 min, to 50% in 2 min, to 85% in 15 min, held 3 min, 100 µL/min. Conditions: column: Zorbax Extend-C18 2.1 x 50 mm; eluents: water / acetonitrile, 0.1% formic acid. The procedure, abridged:
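Each retention time is based on an adduct peak selected computationally and verified by manual inspection. Measurements used HPLC–quadrupole time-of-flight mass spectrometry in positive and negative ionization mode on mixtures of ~100 pure standards. Chromatography ran on a Zorbax Extend-C18 column (2.1 × 50 mm, 1.8 μm) at 100 μL/min with water and acetonitrile, each containing 0.1% formic acid, and dead and dwell volumes of 40 μL and 900 μL.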
Compound `CC(C)(C)c1nnc(NC(=O)C2CC(=O)N(CCc3c[nH]c4ccc(F)cc34)C2)s1` (stereo not given) returned an RP-LC retention time of 782 s. The result for `CCCOC(=O)C1=C(C)NC2=C(C(=O)C(C(=O)OC)C(C)C2)C1c1cccc(F)c1` (stereo not given) reads 994 s. With `CC(=O)c1ccc(NS(=O)(=O)c2ccc3ccccc3c2)cc1`, the RP-LC retention time came out at 822 s.

On to `O=C(C1=CN(c2cccc(F)c2)c2cc(Cl)ccc2S1(=O)=O)N1CCCC1`, for which the RP-LC retention time turned out to be 838 s. On to `O=C(c1ccco1)N1CCN(c2nc(N3CCOCC3)c3n[nH]nc3n2)CC1`, for which the RP-LC retention time was found to be 598 s. The result for `Cc1nc(-c2cccc(F)c2)sc1C(=O)NC1CC1` reads 827 s. Compound `CN(CC#N)C(=O)c1ccc(N2CCc3ccccc32)s1` returned an RP-LC retention time of 913 s. Turning to `COc1ccccc1CNC(=O)C1CCN(Cc2cn(C)c3ccc(Cl)cc23)CC1`, the RP-LC retention time turned out to be 714 s. The same measure for `CCc1noc(NC(C)=O)c1-c1ccc(C)c(S(=O)(=O)Nc2ccccc2)c1`: 719 s; for `CCOc1ccccc1NC(=O)N1CCC(C)(C(=O)NCc2ccc(F)cc2)CC1`: 906 s. The same measure for `COC(=O)C1=CN(C2CC2)c2cc(N3CCN(c4ccc(OC)cc4)CC3)c(F)cc2S1(=O)=O`: 856 s. The same measure for `Cc1ccc2c(Nc3ccc(Cl)cc3)c(-c3nc(C)no3)cnc2n1`: 785 s. `CCC(=O)N(CC(=O)N1CCc2sccc2C1COc1cccc(OC)c1)CC1CCCO1` (stereo not given) displayed an RP-LC retention time of 858 s. The result for `COc1cc(OC2CCN(C)CC2)ccc1Nc1ncc2c(n1)n(C1CCCC1)c(=O)n2C` reads 654 s; that for `Cc1ccc(C)c2sc(N(C)CC(=O)Nc3ccc(S(C)(=O)=O)cc3)nc12`, 892 s.

In turn, `CCc1nc2c(c(=O)n1CC(=O)Nc1ccccc1OC)CN(Cc1ccccc1)CC2` yielded an RP-LC retention time of 650 s. The same measure for `Cc1cc(N2CCN(C)CC2)nc2ccc(NC(=S)NCCN3CCc4ccccc4C3)cc12`: 538 s; for `CCN1C(=O)C(C)(C)COc2ccc(NC(=O)Cc3ccc(F)cc3)cc21`: 889 s. The same measure for `Cn1c(CN2CCN(C(=O)NC(c3ccccc3)c3ccccc3)CC2)nc2ccccc21`: 620 s; for `O=C(C1CCN(c2nccnc2Sc2ccccc2)CC1)N1CCOCC1`: 798 s. The result for `CCCn1ccc2sc(C)c(C(=O)NCC(C)C)c2c1=O` reads 800 s; that for `O=C(CC1CCCCC1)NC1CCCN(c2ccc(=O)n(CC3CC3)n2)C1` (stereo not given), 836 s.

In turn, `Cc1c(NC(=O)c2cccs2)c(=O)n(-c2ccccc2)n1C` came in with an RP-LC retention time of 600 s. The same measure for `CCOC(=O)c1ccc(NC(=O)Cn2nc3c(N4CCSCC4)nccn3c2=O)cc1`: 828 s. The result for `Cc1cccc(S(=O)(=O)N2CCc3nc(-c4ccccc4)ncc3C2)c1C` reads 1160 s; that for `CCN1CCN(CCCNC(=O)c2cc(-c3cccnc3)nc3ccc(Br)cc23)CC1`, 581 s.

Regarding `Fc1cc(F)c2nc(NCCCn3ccnc3)sc2c1`, the RP-LC retention time was determined as 548 s. `Cc1ccc(NC(=O)c2cc(C(C)C)n3nccc3n2)c(F)c1`: the RP-LC retention time worked out at 1270 s. The result for `O=C(CN1CCN(C(=O)Nc2ccc(Br)cc2)CC1=O)NCc1ccco1` reads 718 s; that for `Cn1nc2n(c1=O)CCN(C(=O)Cc1ccsc1)CC2`, 611 s.

`O=C(NC1CCCC1)N1CCN(c2nc3cccnc3n(Cc3ccccc3)c2=O)CC1` returned an RP-LC retention time of 1030 s. The result for `c1ccc(-c2nnc(-c3ccc(-n4ccnc4)nc3)o2)cc1` reads 639 s. In turn, `O=C(NCc1ccc(N2CCOCC2)nc1)c1ccc(Cl)s1` returned an RP-LC retention time of 618 s.

`CSc1ccc(-c2nc3nc(C)cc(C)n3c2Nc2ccc3c(c2)OCCO3)cc1`: the RP-LC retention time was found to be 724 s.

`CCc1noc(NC(C)=O)c1-c1ccc(C)c(S(=O)(=O)N2CCN(c3ccccc3)CC2)c1` registered an RP-LC retention time of 964 s.

Regarding `CCC(C)C(NC(=O)c1ccc(Cl)cc1)C(=O)Nc1nc2ccccc2[nH]1` (stereo not given), the RP-LC retention time turned out to be 793 s. The result for `C=CCN1C(=O)COc2ccc(-c3csc(NC(=O)c4ccc(C)cc4)n3)cc21` reads 1050 s; that for `CN(C)CCNCc1ccc(-c2ccc(Br)cc2)o1`, 598 s.

Regarding `CCn1c(=O)sc2cc(S(=O)(=O)N3CCC(C(=O)Nc4ccc(C)c(F)c4)CC3)ccc21`, the RP-LC retention time was found to be 979 s. The same measure for `O=C1CC(C(F)(F)F)c2c(c(C(=O)O)cn2-c2cccc(F)c2)N1` (stereo not given): 747 s; for `CC1(C(=O)NC2CCN(c3ccc(=O)n(CCOc4ccccc4)n3)C2)CCCCC1` (stereo not given): 906 s; for `Cc1nn(CC(=O)NCCCN2CC(C)CC(C)C2)c(=O)c2c1sc1ccccc12` (stereo not given): 691 s. Take `O=C1CCc2cc(NC(=O)c3ccc(F)c(F)c3)ccc2N1`: the RP-LC retention time was determined as 657 s. The result for `COc1ccc(CNC(=O)C2CC(=O)N(c3ccc4c(c3)CCN4C(C)=O)C2)cc1` (stereo not given) reads 664 s; that for `Cc1nnc(C2CC3(CCN(CCO)CC3)CN2CCc2ccccc2)o1` (stereo not given), 574 s; that for `CCN1C(=O)COc2cc(-c3noc(C(=O)N4CCN(C)CC4)n3)ccc21`, 616 s. The same measure for `COc1ccc(C2(C(=O)N3CCc4nn(CC5CC5)c(=O)n4CC3)CC2)cc1`: 709 s.

Compound `Cc1sc(-c2noc(C3CCC3)n2)cc1S(=O)(=O)N1CCC(C(=O)N2CCCCC2)CC1` showed an RP-LC retention time of 1050 s. The same measure for `CCCCN(CC)C(=O)c1cc(NC(=O)CC(C)C)cnc1N1CCNCC1`: 632 s; for `Cc1ccc(OCC(=O)Nc2cc3c(cc2C)n(C)c(=O)n3C)cc1`: 980 s; for `Cc1cc(C)cc(-c2nnc(Cc3nc(-c4ccccc4C)no3)o2)c1`: 1200 s. The same measure for `NC(=O)c1ccc2c(c1)CCCN2S(=O)(=O)c1ccccc1`: 726 s; for `COc1ccc(C2Cn3nnc(-c4nc(-c5cccc(F)c5)no4)c3CO2)cc1` (stereo not given): 1100 s; for `O=C(NC1CCCC1)c1cc2n(n1)CCCN(Cc1ccc(Cl)cc1)C2=O`: 890 s. The result for `Cc1nnc(NC(=O)CN2CCCCC2c2nc(C3CC3)no2)s1` (stereo not given) reads 755 s; that for `CC(C)OCCCNC(=O)CCc1c(-c2ccc(Br)cc2)nc2ccccn12`, 652 s; that for `CCN(Cc1ccccc1)C(=O)CN1C(=O)C2CCCCN2c2ccc(C(=O)N3CCCC3)cc21` (stereo not given), 892 s. `CCCCOc1ccc(C(=O)NCCc2cn3ccc(C)cc3n2)cc1`: the RP-LC retention time worked out at 588 s. The same measure for `Cc1cccnc1Nc1nc(-c2ccc(F)cc2)cs1`: 870 s; for `Cc1oc(-c2ccc(C(=O)NCCN3CCOCC3)cc2)nc1CN1CCc2ccccc21`: 690 s. The same measure for `CN(C)c1ncncc1N1CCC(C(=O)NC2CCCCC2)CC1`: 607 s. The result for `O=C(CCCn1nc(-c2ccccc2)c2cc(Cl)ccc21)N1CCN(c2ccccn2)CC1` reads 764 s; that for `O=C(Cc1nnc2cc(-c3nc(C4CC4)no3)ccn12)N1CCCCCC1`, 685 s; that for `O=C(NC1CC1)c1cc(N2CCCC2)nc2ccccc12`, 577 s.

Take `CCCNC(=O)Cn1c(C)nc2ccccc21`: the RP-LC retention time is 571 s.

For the compound `Cc1ccc(C)c(-c2coc(-c3ccc(NC(=O)C4CCCCC4)cc3)n2)c1`, the RP-LC retention time worked out at 1370 s. The result for `Cc1ccc(CSc2nccc3c2ccn3CC(=O)NCCN2CCN(C)CC2)cc1` reads 589 s; that for `CCOc1ccccc1-c1noc(-c2nnn3c2COC(c2ccc(OC)cc2)C3)n1` (stereo not given), 1080 s; that for `O=C1CCCCC1Oc1cc(O)c2c(=O)cc(-c3ccccc3)oc2c1` (stereo not given), 1090 s. `Cc1cccc(-c2noc(-c3ccc(N4CCN(c5ncccn5)CC4)nc3)n2)c1` registered an RP-LC retention time of 1310 s. `CCc1ccccc1N(C)C(=O)Cn1ccc2c(=O)n(C)c(=O)n(C)c21` displayed an RP-LC retention time of 735 s. The result for `COc1ccc(C(=O)N2CCCC2c2nc(-c3ccc(OC)c(OC)c3)no2)cc1F` (stereo not given) reads 876 s; that for `COc1ccc(C(C)NC(=O)c2cn3cc(Cl)ccc3n2)cc1` (stereo not given), 833 s. The result for `Cc1ccc(Cn2c(=O)c3sccc3n(Cc3nc(-c4ccc(OC(C)C)cc4)no3)c2=O)cc1` reads 1280 s; that for `O=C1C2CCCN2C(=O)c2ccccc2N1CCc1ccccc1` (stereo not given), 757 s. The same measure for `CC1(C)CC(=O)C2=C(C1)N(CC1CCCO1)C(=O)C2(NC(=O)c1ccc(Cl)cc1)C(F)(F)F` (stereo not given): 975 s; for `CN1CCCn2cc(S(=O)(=O)Nc3ccc(Cl)cc3)cc2C1=O`: 714 s. For the compound `CCc1ccc(CNC(=O)c2ccc3[nH]c4c(c3c2)CN(C(C)=O)CC4)cc1`, the RP-LC retention time worked out at 680 s. `O=C(CCc1c(-c2ccc(Cl)cc2)nc2ccccn12)Nc1cccc(F)c1` yielded an RP-LC retention time of 795 s. The same measure for `O=C(CCC1CCCN(S(=O)(=O)c2ccc(F)cc2)C1)NC1CCS(=O)(=O)C1` (stereo not given): 731 s.
